Earlier results on two molecules are cited in patent US10015963B2, “Microemulsions of lipidated glycines and phenoxy ethanol for preservation of personal care products” (GALAXY SURFACTANTS LTD., priority 2014, dated 2018).

For data set [1] the following is noted: carboxyl group.
For data set [2] the following is noted: at room temperature.

Turning to `CCCCCCCC(=O)NCC(=O)O` [capryloyl glycine, N-capryloyl glycine], in data set [1], the pKa is 4.05.
For the molecule `OCCOc1ccccc1` [phenoxy ethanol, 2-phenoxy ethanol], in data set [2], the “phenoxy ethanol solubilized in water” value is 2.3%.

One may read the pKa as the negative logarithm of the acid dissociation constant.
